Reference: patent publication EP4772500A1, “NOVEL ISOXAZOLE COMPOUND AS TM4SF5-SPECIFIC INHIBITOR AND USE THEREOF” (Seoul National University R&DB Foundation, priority 2023, dated 2025)

What was measured:
[1] = system: SNU449T7 cells; assay: Subcutaneous xenograft liver cancer model in severely combined immunodeficient animals; type: in vivo, NOD-SCID mice
Protocol: Cells expressing TM4SF5 (SNU449T7) were cultured in a cell incubator at 37°C and 5% CO2. The next day, the cells were detached by treating with a T/E (Trypsin/EDTA) solution and centrifuged at 150 × g for 3 minutes to obtain a cell pellet. Thereafter, the supernatant was removed, and the pellet was prepared by resuspension in phosphate buffered saline (PBS). For the generation of cancer tissue, 5 × 10^5 cells/100 µl were injected once subcutaneously into the right thigh area of 6-week-old male NOD/SCID mice. At this time, the animals were anesthetized by inhalation with […] isoflurane and injected. From the 15th day after the cell injection, drug ST-5-002 was intraperitoneally injected at 2.5 mg/kg of body weight at 100 µl per dose for a total of 8 times every 3 days. The body weight and tumor volume of the animals were measured every 3 days from the 12th day after the cell injection. The tumor volume was calculated as (length × width × width)/2 (mm^3) by measuring the length and width of the tumor. On the 36th day after the cell (SNU449T7) injection, the animals were sacrificed, and cancer tissues were obtained and analyzed.
SNU449T7 cells were subcutaneously injected into the thighs of 6-week-old male NOD/CB17-Prkdc^scid/J mice (NOD-SCID mice lacking or having non-functional immune cells such as T cells, B cells, and NK cells, n=10), at a dose of 5X10^5 cells. One week later, vehicle or the drug ST-5-002 was intravenously injected at a concentration of 2.5 mg/kg of body weight (mpk) twice a week. Three days after the 8th drug injection, the animals were sacrificed, cancer tissues were recovered and photographed, and immunohistochemistry, Western blot, and qRT-PCR analyses were performed.

[2] = system: SNU449-TM4SF5 cells; assay: qRT-PCR of cytokines/chemokines, fibrosis and T/NK cell related factors; type: cell-based, human; details: 2.5 µM, 24 hours, SNU449-TM4SF5 (FIG. 8e-g)
Protocol: After disrupting cells or tissues using Qiazol (Qiagen, USA), chloroform was added thereto, and centrifugation was performed at 12,000x g and 4°C for 15 minutes for phase separation, followed by separating the upper […] layer. After adding isopropanol to the separated […] layer to precipitate RNA, it was washed with 70% ethanol. An RNA pellet was separated by centrifugation at 7,500x g for 5 minutes, and ethanol was evaporated for 10 minutes, followed by solubilization in 30 µl of DEPC-water. The solubilized RNA was reverse-transcribed using a reverse transcription kit (Toyobo, Japan) after removing gDNA to obtain cDNA. For the obtained cDNA, expression was measured by real-time PCR (Bio-Rad, USA) using 2x Eva green master mix (Labopass, Republic of Korea) and 0.4 µM forward/reverse primers. The expression level was calculated using Pfaffl's modified delta-delta Ct method.
Normal 22-week-old C57BL/6 mice were randomly divided into a normal chow diet (NCD) group and a Methionine-Choline Deficient (MCD) diet group, which is a non-alcoholic steatohepatitis (NASH) induction diet, with 3 to 6 mice per group, and were allowed free access to the diets for 4 weeks. Simultaneously, vehicle (DMSO) or ST-2-001 at a concentration of 5 mg/kg was treated twice a week per animal via intraperitoneal injection (IP). […]

Structure (SMILES) | inhibitory efficacy in cancer formation in terms of tumor volume and weight ([1]; 2.5 mg/kg of body weight (mpk), 8 injections (FIG. 24c)) | tumor size ([1]; 2.5 mg/kg of body weight (mpk), 8 injections, vs vehicle (FIG. 24b)) | SLAMF7 staining in the small cancer areas ([1]; immunostaining (FIG. 24d)) | degree of PD-L1 staining ([1]; immunostaining (FIG. 24d)) | expression of TM4SF5 ([1]; immunostaining (FIG. 24d)) | expressions of AFP and laminin γ2 ([1]; immunostaining (FIG. 24d)) | staining level of F4/80 and expressions of CCL5 and CCL20 ([1]; immunostaining, vs control group (FIG. 24d)) | mRNA levels of inflammation-related cytokines/chemokines, liver fibrosis factors, and factors related to T cell or NK cell natural killer activation [2]
Cc1ccc(C(=O)Nc2ccc(-c3cc(-c4ccc(O)cc4)no3)cc2)cc1 [ST-5-002, N-(4-(3-(4-hydroxyphenyl)isoxazole-5-yl)phenyl)-4-methylbenzamide] | statistically significant inhibitory efficacy | decreased | much more distinctly strong staining level | decreased | did not change significantly | significantly reduced | lower | –
COc1ccc(-c2cc(-c3ccc(NC(C)=O)cc3)no2)cc1 [ST-2-001, N-(4-(5-(4-methoxyphenyl)isoxazole-3-yl)phenyl)acetamide] | – | – | – | – | – | – | – | inhibited
